This note sets out measurements from US20260060982A1, “USE OF BTK INHIBITOR AND SINGLE-DOSE DRUG” (HUBEI BIO-PHARMACEUTICAL INDUSTRIAL TECHNOLOGICAL INSTITUTE …, priority 2023, published 2026).

The target of one data set is BTK (Homo sapiens, UniProt Q06187). Description: Inhibition of BTK kinase activity (HTRF). In kind it is biochemical. Here is the method: The specific experimental steps were as follows:
The BTK kinase/peptide mix solution was added to the assay plate at 5 μL per well, and centrifuged at 1000 rpm for 1 min. The assay plate was incubated at 23° C. for 15 min.
C. An ATP solution (3968 μL of 1.33× kinase reaction buffer and […] of 10 mM ATP) was prepared, added to the assay plate at 2.5 μL per well, and centrifuged at 1000 rpm for 1 min. The assay plate was incubated at 23° C. for 90 min.
The assay plate was incubated at 23° C. for 60 min and read on the Envision multilabel reader.
E. IC50 results were analyzed using XLFIT5 (Formula 205) from IDBS.
(Time-resolved FRET reads energy transfer from a long-lived donor to a nearby acceptor.)

Data set [1] concerns PG-PS-induced arthritis in Lewis rats. Description: PG-PS-induced arthritis model in rats. In kind it is in vivo. To be noted: for joint tissue lesions (pathology): day 30. From the text:
Intraperitoneal injection of PG-PS suspension can effectively induce chronic, erosive, and relapsing symptoms similar to human rheumatoid arthritis in rats, and is often used to evaluate the in vivo effectiveness of medicaments in the early discovery of arthritis medicaments. The specific steps were as follows:
On day 0, Lewis rats were randomly divided into 6 groups, with 5 rats in the first group and 10 rats in each group from the second group to the sixth group. All rats in the second to sixth groups were intraperitoneally injected with PG-PS (Lee Laboratories, PG-PS 10S, 5.1 mg/ml Rhamnose) to establish the model. The PG-PS injection dose v=15 μg/g×bw (rat weight, in g)/5.1 μg/μL.
On day 1, the model rats (the second to sixth groups) were randomly redivided into 5 groups, with 10 rats in each group. The animals in each group were given the corresponding medicament or vehicle by gavage once a day until the 29th day. […] Clinical observations and clinical scoring were performed daily during the administration period. The ankle diameter of each animal after modeling was subtracted from its ankle diameter before modeling to obtain the ankle diameter difference (delta ankle diameter). The area under the curve (AUC) was calculated by analyzing the ankle diameter difference of each animal in each group. The inhibition rate of each administration group relative to the blank vehicle control was calculated by the average AUC between groups.
Pathology: On day 30, the rats were euthanized. The two hind limbs of rats were stained with toluidine blue to evaluate the degree of joint damage in terms of inflammatory cell lesions, pannus formation, cartilage damage, bone resorption, and periosteal new bone formation, and the severity was scored on a scale from 0 to 7.

The nature of data set [2]: Phase I single-dose clinical trial, pharmacokinetics. In kind it is in vivo. To be noted: human, plasma, oral, single administration, 10 mg to 800 mg. From the text:
(§1) In this example, 96 healthy Chinese aged 18 to 45 were recruited as subjects. The trial included 8 dose groups, each with 12 subjects, who were randomly divided into groups, 10 of whom received compound (I) capsules (i.e., the trial group) and 2 received placebo capsules (containing no compound (I), i.e., the control group or placebo group). […] The dosages involved in this example were all the amount of compound (I). Based on safety and exploration factors, the human MRSD (maximum recommended starting dose) of compound (I) capsule used in the example was set at 10 mg, and the human maximum recommended dose was set at 800 mg. A total of 8 dose groups were set up between the initial dose and the maximum dose (see Table 2 for the dose escalation scheme of the clinical trial): 10 mg, 25 mg, 50 mg, 100 mg, 200 mg, 400 mg, 600 mg, and 800 mg, and single administration safety and tolerability trials were conducted group by group.
(§2) The subjects fasted for 10 h before administration and took a single oral administration of compound (I) capsule or placebo capsule at the prescribed dose on the morning of the trial day. Water was prohibited within 2 h after the administration and food was prohibited within 4 h after the administration. Blood sample collection: 3.0 ml of venous blood was collected before administration (within 45 min) and at 10 min, 20 min, 0.5 h, 1 h, 1.5 h, 1.75 h, 2 h, 2.5 h, 3 h, 3.5 h, 4 h, 6 h, 8 h, 12 h, 16 h, 24 h, 36 h, 48 h, and 72 h after administration. Urine sample collection: Urine samples were collected before administration (within 2 h) and at 0-2 h, 2-4 h, 4-8 h, 8-12 h, 12-16 h, 16-24 h, 24-48 h, and 48-72 h after administration. Feces collection: Feces were collected before administration (within 3 days) and at 0-24 h, 24-48 h, and 48-72 h after administration.
The analysis was performed using the Per-protocol set. The time-dependent plasma concentration data of compound (I) capsules were processed using WinNonlin version 6.4. The main pharmacokinetic parameters of each subject were calculated using a non-compartmental model, and the linear relationship between dose and Cmax and AUC0-t was analyzed using a power function model.

Data set [3] can be described thus: Phase I single-dose clinical trial, safety and tolerability. Type of data set: in vivo, human. To be noted: compound (I) group, all doses (n = 80).
Description: as §1, §2
Safety data set: including all subjects who received at least one administration and had post-administration safety data. […]

A value given as a limit tells only on which side of the number the result lay.

BTK, sequence (Q06187 whole entry): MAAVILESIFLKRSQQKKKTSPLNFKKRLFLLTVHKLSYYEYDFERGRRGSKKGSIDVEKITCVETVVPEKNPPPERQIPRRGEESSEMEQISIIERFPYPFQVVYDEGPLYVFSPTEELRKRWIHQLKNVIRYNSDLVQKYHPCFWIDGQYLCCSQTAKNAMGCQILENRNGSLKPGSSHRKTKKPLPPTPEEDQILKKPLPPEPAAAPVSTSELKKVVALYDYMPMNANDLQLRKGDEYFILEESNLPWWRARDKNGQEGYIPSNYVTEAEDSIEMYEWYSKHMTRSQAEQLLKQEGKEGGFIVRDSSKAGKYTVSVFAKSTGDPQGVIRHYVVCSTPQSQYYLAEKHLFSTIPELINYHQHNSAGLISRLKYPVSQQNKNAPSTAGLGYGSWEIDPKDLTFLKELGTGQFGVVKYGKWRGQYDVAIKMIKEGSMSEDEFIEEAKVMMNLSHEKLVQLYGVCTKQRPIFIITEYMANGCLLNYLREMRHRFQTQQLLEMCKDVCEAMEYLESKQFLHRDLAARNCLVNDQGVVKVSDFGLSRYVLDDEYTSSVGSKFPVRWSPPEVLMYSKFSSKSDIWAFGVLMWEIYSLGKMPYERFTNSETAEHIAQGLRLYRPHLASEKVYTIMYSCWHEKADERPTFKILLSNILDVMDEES

As usually defined, the IC50 is the concentration at which inhibition is half-maximal. Higher therefore signals weaker potency. Usually Cmax stands for the highest concentration seen after dosing. One may read the MRT as the average time that molecules of a dose stay in the body. As a reminder, the Tmax is the time at which the peak concentration occurs. On BTK, `C=CC(=O)N1CCC[C@@H](n2nc(-c3ccc(Oc4ccccn4)cc3)c3c(N)n[nH]c(=O)c32)C1` [compound (I), (R)-1-(1-acryloylpiperidin-3-yl)-4-amino-3-(4-(pyridin-2-yloxy)phenyl)-1H-pyrazolo[3,4-d]pyridazin-7(6H)-one] displayed an IC50 of no more than 4 nM. For the same compound, the “inhibition rate (AUC of ankle diameter difference vs blank vehicle control)” value in data set [1] (1 mg/kg once a day by gavage until the 29th day) is 47.7%; in data set [1] (3 mg/kg once a day by gavage until the 29th day), 64.7%; in data set [1] (10 mg/kg once a day by gavage until the 29th day), 77.3%. In addition, the “joint tissue lesions (pathology)” value in data set [1] (1 mg/kg) is “trend of alleviating tissue damage”; in data set [1] (3 mg/kg), “significant improvement effect”; in data set [1] (10 mg/kg) it was “significant improvement effect”. The Cmax in data set [2] (read-out: Cmax, range over dose groups) was in the range of 46.1 to 5060 ng/mL. Further, the MRT in data set [2] (read-out: MRT, range over dose groups) lay in the range of 1.53 to 4.25 h. In addition, the half-life in data set [2] (read-out: T1/2, range over dose groups) fell in the range of 0.847 to 8.67 h. In addition, the Tmax in data set [2] (read-out: Tmax, range over dose groups) is 1.03 to 2 h. Moreover, the “subjects with TEAEs” value in data set [3] was found to be 25. Also, the “subjects with TEAEs, share” value in data set [3] turned out to be 31.3%. The “treatment-emergent adverse events (TEAE), number of events” value in data set [3] is listed as 35.
